system: zebrafish embryos; assay: Zebrafish embryo phenotype after incubation with compound; type: in vivo; settings: zebrafish embryos treated at concentrations of 10 and 20 μM; micrographic images (FIG. 14 A, B)
Method: FIG. 14 provides micrographic images of zebrafish embryos: (A) and (B) Phenotypes generated by incubating zebrafish embryos with Compound 2-23 at various concentration; (C) Lysates from Compound 2-23 treated or untreated embryos at 24 hpf were reacted with biotin-azide, pull-down with streptavidin beads and analyzed using SDS-PAGE.
FIG. 14 provides micrographic images of zebrafish embryos. Panels (A) and (B) illustrate phenotypes generated by incubating zebrafish embryos with Compound 2-23 at various concentrations. […] Panel (C) provides SDS-PAGE images of lysates from Compound 2-23 treated or untreated embryos at 24 hours post fertilization (hpf). The lysates were treated with biotin-azide and a copper(I) catalyst to react with the terminal alkyne via a copper-catalyzed azide-alkyne Click reaction and thereby attach biotin to any Compound 2-23 that may have been bound to a protein in the lysate. The biotinated lysate was then pulled-down with streptavidin beads and analyzed using SDS-PAGE.

Row | SMILES | phenotypical changes in the embryos
1 | C#CCOC[C@H]1O[C@@H](n2cc(C)c(=O)[nH]c2=O)C[C@H]1N=S(=O)(F)F [Compound 2-23, ((2S,3S,5R)-5-(5-Methyl-2,4-dioxo-3,4-dihydropyrimidin-1(2H)-yl)-2-((prop-2-yn-1-yloxy)methyl)tetrahydrofuran-3-yl)sulfurimidoyl Difluoride] | significant phenotypical changes

system: not given; assay: not given; settings: not given

Row | SMILES | melting point
2 | C#CCOC[C@H]1O[C@@H](n2cc(C)c(=O)[nH]c2=O)C[C@@H]1N=S(=O)(F)N1CCC1 (some centres unmarked) | 105 to 106 °C
3 | C#Cc1ccc(N=S(=O)(F)N2CCC(=O)CC2)cc1 (centres unmarked) | 70 °C
4 | C#CCOC[C@H]1O[C@@H](n2cc(C)c(=O)[nH]c2=O)C[C@@H]1N=S(=O)(F)Oc1ccc2c(c1)CC[C@H]1C3CCC(=O)[C@@]3(C)CC[C@H]21 (some centres unmarked) | 94 to 95 °C
5 | O=C1[C@@H]([C@H](c2ccccc2)N2CCN(c3ccc(F)cc3)CC2)N=S(=O)(F)N1C1CCCCC1 (stereo partly drawn) [Compound 2-25, (4R)-2-Cyclohexyl-1-fluoro-4-((S)-(4-(4-fluorophenyl)piperazin-1-yl)(phenyl)methyl)-2,4-dihydro-3H-1λ^6,2,5-thiadiazol-3-one 1-oxide] | 139 to 140 °C
6 | C#Cc1ccc(NS(=O)(=O)NCC(=O)O)cc1 [Compound 4-1, (N-(4-ethynylphenyl)sulfamoyl)glycine] | 113 to 115 °C
7 | C#Cc1ccc(NS(=O)(=O)N[C@@H](C)C(=O)O)cc1 [Compound 4-2, (N-(4-Ethynylphenyl)sulfamoyl)-L-alanine] | 163 to 165 °C
8 | C#Cc1ccc(N=S(=O)(F)Oc2ccc(-c3ccccc3)cc2)cc1 (centres unmarked) [Compound 6-1, [1,1′-biphenyl]-4-yl (4-ethynylphenyl)sulfurofluoridoimidate] | 94 to 95 °C

The remaining lines, values ahead:

Row | melting point | SMILES
9 | 129 °C | C#Cc1ccc(N=S(=O)(Oc2ccc(-c3ccccc3)cc2)Oc2ccc(-c3ccccc3)cc2)cc1 [Compound 7-2, Di([1,1′-biphenyl]-4-yl) (4-ethynylphenyl)sulfurimidate]
10 | 97 to 98 °C | C#Cc1ccc(N=S2(=O)Oc3ccccc3O2)cc1 [Compound 9-1, 2-((4-Ethynylphenyl)imino)-2λ^4-benzo[d][1,3,2]dioxathiole 2-oxide]
11 | 101 °C | C#Cc1ccc(N=S2(=O)Oc3c(C)ccc(C)c3O2)cc1 [Compound 9-2, 2-((4-Ethynylphenyl)imino)-4,7-dimethyl-2λ^4-benzo[d][1,3,2]dioxathiole 2-oxide]
12 | 138 to 139 °C | C#Cc1ccc(N=S2(=O)Oc3ccccc3-c3ccccc3O2)cc1 [Compound 9-4, 6-((4-Ethynylphenyl)imino)-6λ^4-dibenzo[d,f][1,3,2]dioxathiepine 6-oxide]
13 | 93 °C | C#Cc1ccc(N=S(=O)(Oc2ccccc2O)N2CCCCC2)cc1 (centres unmarked) [Compound 10-1, 2-Hydroxyphenyl N-(4-ethynylphenyl)piperidine-1-sulfonimidate]
14 | 139 to 141 °C | C#Cc1ccc(N=S(=O)(Oc2ccccc2O)N2CCN(C(=O)OC(C)(C)C)CC2)cc1 (stereo not drawn) [Compound 10-2, tert-Butyl 4-(N-(4-ethynylphenyl)-S-(2-hydroxyphenoxy)sulfonimidoyl)piperazine-1-carboxylate]

— US11254702B2, “Thionyl tetrafluoride modified compounds and uses” (The Scripps Research Institute, priority 2016, dated 2022)
